Test results published in article PMC9530166, “Allosteric regulation of glycogen breakdown by the second messenger cyclic di-GMP” (Nature Communications, 2022).
Entries after “also recorded” stand apart in the source; their conditions may differ.

Columns and labels:
GlgX = GlgX (Streptomyces venezuelae, UniProt F2RAW5); assay: Fluorescence polarization (FP) binding, wild-type GlgX; details: FP, 1 nM fluoresceinated ligand, 25 °C
From the text: (§1) Fig. 5 Structure of the S. venezuelae GlgX-c-di-GMP complex. a Ribbon diagram of the S. venezuelae GlgX-c-di-GMP complex with one GlgX subunit colored cyan and the other salmon. Shown as sticks are the c-di-GMP molecules bound at each end of the antiparallel dimer. […] There was clear density for each c-di-GMP molecule. b Close up of the GlgX-c-di-GMP binding interaction. Key residues mediating contacts to the c-di-GMP are shown as sticks and labeled. Hydrogen bonds from GlgX residues that specify binding to the guanine are indicated by yellow dashed lines. c Fluorescence polarization (FP) binding isotherm showing interaction of GlgX, GlgXE47A-R49A and GlgXR438A-R579A for F-c-di-GMP in red, green and blue respectively. Also shown is the binding isotherm for GlgX binding to F-c-di-AMP in black. […] The y-axis and x-axis are millipolarization (mP) units and GlgX concentration (μM), respectively. Shown are representative binding curves for each. The experiments were performed in technical triplicates and the error between measurements reported. Error bars represent SD of the measurements. Source data are provided in the Source data file.
Thus, we used this F-tagged c-di-GMP in fluorescence polarization (FP) studies to quantify the interaction between GlgX and c-di-GMP. […] To ensure that the presence of the fluorescent tag was not impacting the GlgX interaction with c-di-GMP we used microscale thermophoresis (MST) to quantify c-di-GMP binding to GlgX. […] But to further probe the structural model we created GlgXE47A-R49A and GlgXR438A-R579A mutants and performed FP studies with these proteins.
To measure c-di-GMP binding to GlgX and GlgX mutants, 2′-O-(6-[Fluoresceinyl]aminohexylcarbamoyl)-cyclic diguanosine monophosphate (2′-Fluo-AHC-c-di-GMP) (BioLog), was used as a fluoresceinated reporter ligand. This molecule is conjugated via a nine atom spacer to one of the c-di-GMP 2′ hydroxyl groups. […] 2′-O-(6-[Fluoresceinyl]aminohexylcarbamoyl)-cyclic diadenosine monophosphate (2′-Fluo-AHC-c-di-AMP) (BioLog) was also used in binding studies to assess specificity of GlgX for c-di-GMP. […]

GlgXE47A-R49A = assay: Fluorescence polarization binding, GlgXE47A-R49A; parameters: species or system Streptomyces venezuelae
Chain of GlgXE47A-R49A (as listed by the source, stated change not applied): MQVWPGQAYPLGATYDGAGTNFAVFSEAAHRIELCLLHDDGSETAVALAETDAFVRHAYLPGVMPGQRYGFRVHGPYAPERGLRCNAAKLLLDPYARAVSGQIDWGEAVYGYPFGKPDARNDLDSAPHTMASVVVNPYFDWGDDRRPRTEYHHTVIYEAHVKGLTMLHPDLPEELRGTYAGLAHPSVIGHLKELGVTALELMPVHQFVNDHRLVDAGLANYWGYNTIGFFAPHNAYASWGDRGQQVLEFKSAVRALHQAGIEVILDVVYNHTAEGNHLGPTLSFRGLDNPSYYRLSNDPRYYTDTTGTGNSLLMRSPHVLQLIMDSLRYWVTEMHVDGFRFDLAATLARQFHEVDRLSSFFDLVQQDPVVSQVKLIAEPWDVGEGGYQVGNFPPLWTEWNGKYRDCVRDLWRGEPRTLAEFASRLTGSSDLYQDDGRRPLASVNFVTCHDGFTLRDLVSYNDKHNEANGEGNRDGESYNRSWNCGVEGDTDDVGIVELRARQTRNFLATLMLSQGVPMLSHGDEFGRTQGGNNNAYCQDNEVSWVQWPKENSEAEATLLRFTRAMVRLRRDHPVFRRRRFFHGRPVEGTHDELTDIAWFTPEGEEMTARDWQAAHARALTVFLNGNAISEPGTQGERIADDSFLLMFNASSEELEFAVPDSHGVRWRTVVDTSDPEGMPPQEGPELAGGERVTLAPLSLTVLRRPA
From the text: as §1, with “Error bars represent SD of the measurements. Source data are provided in the Source data file.” left out
(§2) Thus, we used this F-tagged c-di-GMP in fluorescence polarization (FP) studies to quantify the interaction between GlgX and c-di-GMP. […] To ensure that the presence of the fluorescent tag was not impacting the GlgX interaction with c-di-GMP we used microscale thermophoresis (MST) to quantify c-di-GMP binding to GlgX. […]

GlgXR438A-R579A = assay: Fluorescence polarization binding, GlgXR438A-R579A; parameters: species or system Streptomyces venezuelae
Chain of GlgXR438A-R579A (as listed by the source, stated change not applied): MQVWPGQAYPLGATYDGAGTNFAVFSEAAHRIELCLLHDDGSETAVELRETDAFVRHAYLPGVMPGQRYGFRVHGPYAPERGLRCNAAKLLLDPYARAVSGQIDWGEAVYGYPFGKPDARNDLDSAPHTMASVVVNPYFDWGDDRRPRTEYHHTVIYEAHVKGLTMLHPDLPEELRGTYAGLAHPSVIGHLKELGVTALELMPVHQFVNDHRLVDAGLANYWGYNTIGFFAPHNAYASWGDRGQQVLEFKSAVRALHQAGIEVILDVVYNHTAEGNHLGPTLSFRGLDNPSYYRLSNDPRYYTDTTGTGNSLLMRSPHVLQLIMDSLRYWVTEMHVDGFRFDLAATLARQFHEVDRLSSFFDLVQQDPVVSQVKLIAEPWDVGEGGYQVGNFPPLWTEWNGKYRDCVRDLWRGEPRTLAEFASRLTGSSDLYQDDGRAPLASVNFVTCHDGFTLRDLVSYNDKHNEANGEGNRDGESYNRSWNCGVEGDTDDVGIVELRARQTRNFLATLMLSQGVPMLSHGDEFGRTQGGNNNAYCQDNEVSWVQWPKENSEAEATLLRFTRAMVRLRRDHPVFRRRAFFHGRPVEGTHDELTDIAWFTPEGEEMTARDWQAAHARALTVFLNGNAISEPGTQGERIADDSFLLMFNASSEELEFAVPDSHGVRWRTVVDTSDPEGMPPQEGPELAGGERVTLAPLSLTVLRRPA
From the text: as §1, with “Error bars represent SD of the measurements. Source data are provided in the Source data file.” left out
as §2

His6-GlgX = assay: DRaCALA with [32P]-c-di-GMP, wild-type GlgX; type: binding, Streptomyces venezuelae; details: excess (100 µM) unlabeled nucleotide
Protocol: (§3) Fig. 1 GlgX binds c-di-GMP. a Quantification of c-di-GMP in S. venezuelae cell extracts using LC-MS/MS. Cells were harvested during late vegetative growth (8–10 h), transition to sporulation (12–16 h), and sporulation (18–20 h). Data are presented as the mean of biological replicates ±SD (n = 3). […] Source data are provided in the Source data file. c [^32P]-c-di-GMP binds to GlgX in DRaCALA assay indicated by dark spots in the center of the nitrocellulose membrane. For competition, excess (100 µM) of unlabeled c-di-GMP, c-di-AMP, or GTP was added to the reaction containing [^32P]-c-di-GMP and GlgX.
To determine if the interaction between Vnz29170 (herein called GlgX) and c-di-GMP is direct, we purified an N-terminally His6-tagged GlgX protein and performed nano differential scanning fluorimetry (nanoDSF) thermal shift assays. […] In addition, we used differential radial capillary action of ligand assays (DRaCALA), which allows visualization of protein-bound radiolabeled ligand as a central spot after the application of the protein-ligand mix onto nitrocellulose. Using DRaCALA we confirmed that GlgX from S. venezuelae binds ^32P-labeled c-di-GMP.
For DRaCALA assays, purified His6-GlgX (15 μg) was mixed with 0.5 μl undiluted [^32P]-c-di-GMP (42 nM) (Hartmann Analytic GmbH, Braunschweig) in binding buffer (25 mM Tris pH 8; 150 mM NaCl; 2.5% (v/v) glycerol; 5 mM MgCl2) and the reaction was incubated at rt for 5 min. For competition assays, 100 μM nonlabeled nucleotides were added to the samples and incubated at rt for 5 min prior to the addition of [^32P]-c-di-GMP. Reactions (10 μl) were spotted on the same nitrocellulose membrane (Roth), air dried for 10 min and analyzed via phosphorimaging.

His6-GlgX (Vnz29170) = assay: nanoDSF label-free thermal shift assay, wild-type GlgX; type: binding, Streptomyces venezuelae; details: 10 µM GlgX, 1 mM c-di-AMP
Protocol: as §3
To determine if the interaction between Vnz29170 (herein called GlgX) and c-di-GMP is direct, we purified an N-terminally His6-tagged GlgX protein and performed nano differential scanning fluorimetry (nanoDSF) thermal shift assays. […]
For label-free thermal shift assay experiments, 10 μM purified protein in 25 mM Tris pH 8, 150 mM NaCl, 2.5% (v/v) glycerol, and 5 mM MgCl2 was incubated without or with (1 mM) of nonlabeled c-di-GMP or c-di-AMP, respectively, at rt for 10 min. Reactions were subsequently analyzed in a Tycho NT.6 (NanoTemper Technologies) device with a 30 K/min thermal ramp and the internal fluorescence at 330 and 350 nm was recorded. […]

[1] = molecular target: S. venezuelae glycogen debranching enzyme GlgX (Vnz29170) (S. venezuelae); assay: crystal structure; GlgX with 3 mM c-di-GMP, 3.34 Å; 40% ethylene glycol, 0.1 M sodium acetate pH 4.6; two GlgX dimers in the asymmetric unit

Chain of GlgX (F2RAW5 entry or part of it): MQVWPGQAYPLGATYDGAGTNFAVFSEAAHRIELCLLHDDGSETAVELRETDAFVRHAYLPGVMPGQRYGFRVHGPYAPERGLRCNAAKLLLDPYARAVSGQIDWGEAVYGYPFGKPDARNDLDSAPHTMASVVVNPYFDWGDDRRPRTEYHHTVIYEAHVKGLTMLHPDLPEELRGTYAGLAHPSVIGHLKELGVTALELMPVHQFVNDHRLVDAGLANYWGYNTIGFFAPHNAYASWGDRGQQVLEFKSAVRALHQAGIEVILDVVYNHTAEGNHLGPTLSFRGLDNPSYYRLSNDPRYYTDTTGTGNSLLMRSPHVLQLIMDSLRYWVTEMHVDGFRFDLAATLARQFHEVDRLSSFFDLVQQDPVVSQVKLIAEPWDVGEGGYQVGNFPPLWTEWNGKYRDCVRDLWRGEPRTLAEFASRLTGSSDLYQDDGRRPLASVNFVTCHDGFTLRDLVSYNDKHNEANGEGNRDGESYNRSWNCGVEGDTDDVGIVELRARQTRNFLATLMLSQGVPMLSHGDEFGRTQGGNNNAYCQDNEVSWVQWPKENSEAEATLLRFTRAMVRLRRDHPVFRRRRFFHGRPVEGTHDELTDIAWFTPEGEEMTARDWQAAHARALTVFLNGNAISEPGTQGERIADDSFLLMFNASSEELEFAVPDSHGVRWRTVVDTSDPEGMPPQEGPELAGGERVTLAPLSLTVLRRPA

Which “binding to WT GlgX in FP” value (GlgX) does the source give for “2′-O-(6-[Fluoresceinyl]aminohexylcarbamoyl)-cyclic diadenosine monophosphate [F-c-di-AMP]” here?
The value was “did not bind; also recorded: essentially no binding”.

What does the source list for “2′-O-(6-[Fluoresceinyl]aminohexylcarbamoyl)-cyclic diguanosine monophosphate [F-c-di-GMP]”?
binding to mutant in FP (GlgXE47A-R49A): nonsaturable binding; binding to mutant in FP (GlgXR438A-R579A): nonsaturable binding; Kd (GlgX; WT GlgX titrated, pH 7.5, read-out: Kd): 8.2 ± 1 µM

Which “competition with 32P-c-di-GMP for binding to GlgX” value (His6-GlgX) does the source give for `Nc1nc2c(ncn2[C@@H]2O[C@H](COP(=O)(O)OP(=O)(O)OP(=O)(O)O)[C@@H](O)[C@H]2O)c(=O)[nH]1` [GTP] here?
Its value is “not c-di-AMP or GTP competed”.

What does the source list for `Nc1ncnc2c1ncn2[C@@H]1O[C@@H]2COP(=O)(O)O[C@H]3[C@@H](O)[C@H](n4cnc5c(N)ncnc54)O[C@@H]3COP(=O)(O)O[C@H]2[C@H]1O` [c-di-AMP]?
competition with 32P-c-di-GMP for binding to GlgX (His6-GlgX): not c-di-AMP or GTP competed; effect of ligand on melting point of His6-GlgX (His6-GlgX (Vnz29170)): no effect

With “S. venezuelae glycogen debranching enzyme GlgX (Vnz29170)” as the compound, how does the stoichiometry N [1] read?
Its stoichiometry N is 2.
